How the values were obtained:
[1] = test system: INS-HA transgenic RAG-2^−/− mice; experiment: Diabetes by adoptive transfer of TCR-HA CD4 cells; assay type: in vivo, mouse
MAPK = experiment: Protracted MAPK (p38, Erk) activation after 16 h CD3 stimulation; assay type: cell-based, mouse; conditions: crt^−/− T cells, CD3 antibodies 16 h
cd3ε^−/− mice = experiment: Treg cell generation in murine model of inflammatory bowel disease; assay type: in vivo, mouse; conditions: 3 mM oATP in 100 μl i.v., with transfer or 16 hours after; day 28
From the text: FIG. 14: Experimental protocol for Treg generation in a mouse model of inflammatory bowel disease. • CD3ε^−/− mice were adoptively transferred with 2×10^5 naïve CD4^+ T cells; 2×10^5 naïve CD4^+ T cells with oATP; 2×10^5 naïve CD4^+ T cells with administration of oATP sixteen hours after the transfer; or 2×10^5 naïve CD4^+ T cells with 10^5 natural Treg cells. oATP-treated animals received daily intravenous oATP administration on days 2-5, no oATP administration on days 6 and 7, and daily intravenous oATP administration on days 8-12. Mice were analyzed for CD4^+ subpopulations on day 28 (See Example 12).
FIG. 15: Treg cell generation with oATP treatment in a mouse model of inflammatory bowel disease. • a) Colons, spleens and mesenteric lymph nodes of test animals were assessed for inflammation fourteen days after the last injection of oATP (see Example 12). • b) FACS analysis identifying the percentage of CD4^+CD25^highFoxp3 regulatory T cells. • c) FACS analysis identifying effector memory T cells as CD4^+CD44^+CD62L^− or CD4^+CD25^+CD69^+. The ratio of Treg cells to effector memory T cells is shown. […]
Four experimental groups of CD3ε^−/− mice were tested for Treg generation (FIG. 14). […] Mice were analyzed on day 28.
The colons of the animals were assessed for inflammation 14 days after the last injection of oATP (FIG. 15A). […]

mouse T cells = experiment: IL-2 secretion by ELISA; assay type: cell-based
mouse model of IBD = experiment: IBD model with insufficient number of adoptively transferred Treg cells; assay type: in vivo
[2] = test system: naïve CD4^+ T cells / CD4^+CD25^+ natural Treg cells; experiment: Treg differentiation and expansion in vitro (anti-CD3, irradiated splenocytes, IL-2); assay type: cell-based
Method: Treg cell generation was analyzed after 7-10 days of culture by flow cytometry.

Egr2 and Egr3 = experiment: Real-time PCR of anergy related genes Egr2 and Egr3; assay type: cell-based, mouse; conditions: 2 h and 16 h after T cell activation
From the text: NFAT nuclear translocation without concomitant MAPK activation, which can be obtained by ionomycin treatment, implements a transcriptional program leading to T cell anergy (Macian et al., Cell 109:719-731 (2002)). […] Then, we hypothesized that activation of T cells in the presence of oATP could induce T cell anergy. […] The effect of oATP was not due to altered turn-over of the TCR/CD3 complex at the cell surface, as determined by FACS analysis (data not shown).

Nc1ncnc2c1ncn2[C@@H](C=O)O[C@@H](C=O)COP(=O)(O)OP(=O)(O)OP(=O)(O)O [oATP]
Blood glucose ([1]; day 12, twice daily i.v. and i.p. day 1 to 10): normal
CD69^+ cells in the pancreas ([1]; mouse, in vivo): undetectable
TCR-HA^+ cells in the pancreas ([1]; mouse, in vivo): barely detectable
TCR-HA^+ cells in the spleen ([1]; mouse, in vivo): significantly reduced
pathological findings in the pancreas ([1]; mouse, in vivo): no relevant pathological findings
IL-6, IFN-γ and TNF-α on a per-cell basis, ex vivo splenocytes pulsed with HA 110-120 peptide ([1]; versus PBS-treated control group): significant reduction
prolonged activation of MAPK (p38 MAPK and Erk) (MAPK): almost completely abolished
Treg generation from naïve T cells (cd3ε^−/− mice): most effective when oATP is present during the first activation of the naïve T cells
IL-2 secretion (mouse T cells): strongly inhibited
Foxp3 expression in Treg cells (mouse model of IBD; day 28, daily 100 μl of 3 mM oATP i.v. from day 14): increased
bowel inflammation (mouse model of IBD; mouse, in vivo): no signs of bowel inflammation
effector/memory T cells in mesenteric lymph nodes (mouse model of IBD; mouse, in vivo): reduced counts
ratio of Treg/EM cells in mesenteric lymph nodes (mouse model of IBD; mouse, in vivo): not significantly changed
spleen and mesenteric lymph nodes size (mouse model of IBD; mouse, in vivo): no increase
Foxp3 by quantitative RT-PCR ([2]; first 6 days after anti-CD3 stimulation): progressive upregulation
percentage of CD4^+CD25^highFoxp3^+ Treg cells ([2]; naïve CD4^+ T cells, oATP 100 μM): significantly enhanced
expansion of Treg cells, Foxp3 expression level ([2]; sorted CD4^+CD25^+ natural Treg cells, oATP 100 μM): higher expression levels of Foxp3
Egr2 and Egr3 transcripts (Egr2 and Egr3): significant upregulation
